Test results from patent US11458189B2, “Cytoprotective drugs” (BALMES TRANSPLANTATION, priority 2017, dated 2022).
Starred links: 1 amine or outer side, 2 acyl side, 3 side chain; linkers in the order of their positions; H or OH if unused. Positions of bridges follow the written chain, without caps; N, C: chain ends. Non-standard residues stand in square brackets, D forms with d. Residues, ends and D or L forms follow the SMILES beside them. ξ: configuration not given here. *: point of attachment. pTerphenylCO(4''-OnC5H11) = CCCCCOc1ccc(-c2ccc(-c3ccc(C(=O)*)cc3)cc2)cc1; Orn(4R-OH,5R-OH) = O=C([C@H](C[C@@H](O)[C@@H](O)N[*:3])N[*:1])[*:2]; hTyr(3S-OH,4S-OH) = N[C@H](C(=O)O)[C@H](O)[C@@H](O)c1ccc(O)cc1; Pro(3S-OH,4S-Me) = C[C@H]1CN[C@H](C(=O)O)[C@H]1O; ξPro(4R-OH) = O=C(O)C1C[C@@H](O)CN1

Tested on: Human Renal Glomerular Endothelial Cells (HRGEC)
Assay: Oxygen and glucose deprivation followed by replenishment, cell survival (calcein AM), HRGEC
Assay type: cell-based
Description: Anidulafungin and micafungin were tested on Human Renal Glomerular Endothelial Cells (HRGEC, Innoprot P10665), on Human Renal Proximal Tubular Epithelial Cells (HRPTEpiC, Innoprot P10662), on Human Astrocytes (HA, caltag SC-1800), on Human Cardiac Microvascular Endothelial Cells (HCMEC, Caltag SC-6000), on Human Hepatic Sinusoidal Endothelial Cells (HHSEC, Caltag SC-5000), on Rat Primary Kidney Glomerular Endothelial cells (Cellbiologics, RN-6014G) and on Bovine Brain Microvascular Endothelial Cells (BBMEC, Caltag SC-B100).
In a first phase, these isolated, purified and cryopreserved cells are thawed and multiplied according to the supplier's recommendations in T75 or T175 flasks pre-coated with 2 μg of fibronectin/[…] (CORNING) for HRGEC, HCMEC, HHSEC and BBMEC, or 2 μg poly-L-lysin/cm^2 (Caltag SC-0403) for HRPTEpiC and HA, or 15 mL/flask 175 cm^2 gelatin-based solution (Cellbiologics) in the presence of endothelial cell supplemented growth medium ECM (P60104, INNOPROT, Caltag, SC-1001) for HRGEC, HCMEC, HHSEC, RPKGEC or BBMEC, or astrocyte cell supplemented growth medium AM (Caltag SC-1801) for HA or epithelial cell supplemented growth medium EpiCM (P60106, INNOPROT) for HRPTEpiC, at 37° C. under 5% CO2 and saturated humidity until their confluency. They are then harvested by trypsinization according to the method described by the supplier for exactly 5 minutes and then reseeded in new flasks a maximum of three times.
To carry out the oxygen and glucose deprivation test followed by their replenishment, the cells will be seeded in 96-well black plates with transparent flat bottom (GREINER). Once a sufficient number of cells has been obtained to allow seeding of 2000 to 15000 cells per well of 96-well plates depending on the cell type, the cells are seeded in these 96-well plates previously coated with an extracellular matrix as listed above for the flasks. The cells are cultured for 5 to 8 days according to the cell type, in the presence of the same growth medium as in the flask as described above except for HRGEC and HRPTEpiC for which DMEM (DUTSCHER) with 1 g/L of supplemented glucose is used, at 37° C. under 5% CO2 and saturated humidity to obtain confluency.
On the first day of oxygen and glucose deprivation, (5th, 6th, 7th or 8th day of culture), the culture conditions are drastically changed. The medium of all plates is removed and replaced by DMEM (DUTSCHER) medium without glucose and supplemented only with 1% penicillin-streptomycin (DUTSCHER). Anidulafungin or micafungin dissolved in dimethyl sulfoxide (DMSO) is then added to each well at the desired concentration, resulting in a maximum of 1% DMSO, and the plates are placed under hypoxia at <1% 02 and 5% CO2 at 37° C. for 24 hours of culture. Each compound was tested in a concentration range.
After 24 hours, the growth medium is changed and replaced by a richer medium, DMEM (DUTSCHER) at 1 g/L glucose and 2% FBS (INNOPROT) and 1% penicillin-streptomycin (DUTSCHER). These media will have been pre-equilibrated at 37° C. in advance. The cells are then returned to culture at 37° C. under 20% 02 and 5% CO2 for 22h.
After 22 hours of reoxygenation, the potential protective effect of anidulafungin or micafungin is measured by a cell viability test using calcein AM (CORNING), which is a dye substrate. The calcein AM can easily cross the cell membrane of the viable cells. The AM ester groups mask the part of the molecule that chelates calcium. Once inside the cells, the (non-fluorescent) calcein AM is hydrolyzed to (fluorescent) calcein by endogenous esterases. The resulting calcein molecule binds to calcium inside the cell and remains trapped inside the cell. These molecules emit strong green fluorescence when subjected to […] of a particular wavelength (495 nm). Since dead cells lack esterase activity, only living cells are labelled.
This cell viability test is performed in two steps. […]

[1] = [Anidulafungin] log μM 0.7781513
[2] = [Anidulafungin] log μM 1.079181
[3] = [Anidulafungin] log μM 1.255273

CCCCCOc1ccc(-c2ccc(-c3ccc(C(=O)N[C@H]4C[C@@H](O)[C@@H](O)NC(=O)[C@@H]5[C@@H](O)[C@@H](C)CN5C(=O)[C@H]([C@@H](C)O)NC(=O)[C@H]([C@H](O)[C@@H](O)c5ccc(O)cc5)NC(=O)C5C[C@@H](O)CN5C(=O)[C@H]([C@@H](C)O)NC4=O)cc3)cc2)cc1 (stereo partly drawn) [Anidulafungin] ({pTerphenylCO(4''-OnC5H11)}-[Orn(4R-OH,5R-OH)]T[ξPro(4R-OH)][hTyr(3S-OH,4S-OH)]T[Pro(3S-OH,4S-Me)]; lactam 1-C)
Globalfluo assay 1 ([Anidulafungin] log μM 0): 1595273 arbitrary units
Globalfluo assay 2 ([Anidulafungin] log μM 0): 2299957 arbitrary units
Globalfluo assay 3 ([Anidulafungin] log μM 0): 2320330 arbitrary units
Mean globalfluo ([Anidulafungin] log μM 0): 2071853 arbitrary units
Survival rate (%) ([Anidulafungin] log μM 0): −6%
Globalfluo assay 1 ([Anidulafungin] log μM 0.30103): 3108717 arbitrary units
Globalfluo assay 2 ([Anidulafungin] log μM 0.30103): 8079028 arbitrary units
Globalfluo assay 3 ([Anidulafungin] log μM 0.30103): 4587276 arbitrary units
Mean globalfluo ([Anidulafungin] log μM 0.30103): 5258340 arbitrary units
Survival rate (%) ([Anidulafungin] log μM 0.30103): 7%
Globalfluo assay 1 ([Anidulafungin] log μM 0.60206): 6404501 arbitrary units
Globalfluo assay 2 ([Anidulafungin] log μM 0.60206): 5391467 arbitrary units
Globalfluo assay 3 ([Anidulafungin] log μM 0.60206): 4055726 arbitrary units
Mean globalfluo ([Anidulafungin] log μM 0.60206): 5283898 arbitrary units
Survival rate (%) ([Anidulafungin] log μM 0.60206): 7%
Globalfluo assay 1 [1]: 1844220 arbitrary units
Globalfluo assay 2 [1]: 8446890 arbitrary units
Globalfluo assay 3 [1]: 6499110 arbitrary units
Mean globalfluo [1]: 5596740 arbitrary units
Survival rate (%) [1]: 8%
Globalfluo assay 1 ([Anidulafungin] log μM 0.90309): 7152564 arbitrary units
Globalfluo assay 2 ([Anidulafungin] log μM 0.90309): 8021501 arbitrary units
Globalfluo assay 3 ([Anidulafungin] log μM 0.90309): 6792572 arbitrary units
Mean globalfluo ([Anidulafungin] log μM 0.90309): 7322212 arbitrary units
Survival rate (%) ([Anidulafungin] log μM 0.90309): 15%
Globalfluo assay 1 ([Anidulafungin] log μM 1): 8082278 arbitrary units
Globalfluo assay 2 ([Anidulafungin] log μM 1): 8981812 arbitrary units
Globalfluo assay 3 ([Anidulafungin] log μM 1): 10460790 arbitrary units
Mean globalfluo ([Anidulafungin] log μM 1): 9174960 arbitrary units
Survival rate (%) ([Anidulafungin] log μM 1): 23%
Globalfluo assay 1 [2]: 12175690 arbitrary units
Globalfluo assay 2 [2]: 10104310 arbitrary units
Globalfluo assay 3 [2]: 9396440 arbitrary units
Mean globalfluo [2]: 10558813 arbitrary units
Survival rate (%) [2]: 28%
Globalfluo assay 1 ([Anidulafungin] log μM 1.20412): 12170420 arbitrary units
Globalfluo assay 2 ([Anidulafungin] log μM 1.20412): 9545764 arbitrary units
Globalfluo assay 3 ([Anidulafungin] log μM 1.20412): 9735499 arbitrary units
Mean globalfluo ([Anidulafungin] log μM 1.20412): 10483894 arbitrary units
Survival rate (%) ([Anidulafungin] log μM 1.20412): 28%
Globalfluo assay 1 [3]: 10855790 arbitrary units
Globalfluo assay 2 [3]: 12347330 arbitrary units
Globalfluo assay 3 [3]: 7837444 arbitrary units
Mean globalfluo [3]: 10346855 arbitrary units
Survival rate (%) [3]: 27%
Globalfluo assay 1 ([Anidulafungin] log μM 1.30103): 10143140 arbitrary units
Globalfluo assay 2 ([Anidulafungin] log μM 1.30103): 10354290 arbitrary units
Globalfluo assay 3 ([Anidulafungin] log μM 1.30103): 10227990 arbitrary units
Mean globalfluo ([Anidulafungin] log μM 1.30103): 10241807 arbitrary units
Survival rate (%) ([Anidulafungin] log μM 1.30103): 27%
